Test results taken from patent US11072598B2, “Somatostatin modulators and uses thereof” (CRINETICS PHARMACEUTICALS, INC., priority 2017, dated 2021).

Biological target: T1, human somatostatin receptor subtype 2 (Homo sapiens, UniProt P30874)
T1 construct: expressed in transfected cells
Experiment: cAMP functional assay for SSTR2 agonists
Assay type: cell-based
Conditions: inhibition of cAMP activities via human SST2 receptor (SSTR2), CHO-K1 cells; read-out: EC50
Text: General overview: All five SSTR subtypes are Gi coupled G-protein coupled receptors (GPCRs) that lead to decreases in intracellular cyclic AMP (cAMP) when activated by an agonist. Therefore, measurement of intracellular cAMP levels can be used to assess whether compounds of the invention are agonists of SSTR subtypes (John Kelly, Troy Stevens, W. Joseph Thompson, and Roland Seifert, Current Protocols in Pharmacology, 2005, 2.2.1-2.2). One example of an intracellular cAMP assay is described below. cAMP assay protocol:
Four days prior to the assay, 5,000 Chinese hamster ovary cells (CHO-K1, ATCC #CCL-61) stably expressing the human somatostatin receptor subtype 2 are plated in each well of a 96-well tissue culture-treated plate in Ham's F12 growth media (ThermoFisher #10-080-CM) supplemented with 10% donor bovine serum (Gemini Bio-Products #100-506), 100 U/mL penicillin; 100 ug/mL streptomycin; 2 mM L-glutamine (Gemini Bio-Products #400-110) and 0.2 mg/mL hygromycin B (GoldBio #31282-04-9). The cells are cultured at 37° C., 5% CO2 and 95% humidity. On the day of the assay, the media is aspirated and the cells are treated with 50 μL of 1.6 μM NKH477 (Sigma #N3290) plus various dilutions of compounds of the invention in assay buffer [1× Hank's Balanced Salt Solution (ThermoFisher #SH3058802), 0.5 mM HEPES pH 7.4, 0.1% bovine serum albumin, 0.2 mM 3-Isobutyl-1-methylxanthine (IBMX, VWR #200002-790)]. The cells are incubated for 20 minutes at 37° C. […] The cells are treated with 50 μL of lysis buffer (HRTF cAMP kit, Cisbio). The lysate is transferred to 384-well plates and cAMP detection and visualization antibodies are added and incubated for 1-24 hours at room temperature. The time-resolved fluorescent signal is read with a Tecan M1000Pro multiplate reader. The intracellular cAMP concentrations are calculated by regression to a standard curve and are plotted vs. the concentration of the compounds of the invention and the EC50 of the compounds are calculated using standard methods. All data manipluations are in GraphPad Prism v6.

T1 sequence (P30874 whole entry): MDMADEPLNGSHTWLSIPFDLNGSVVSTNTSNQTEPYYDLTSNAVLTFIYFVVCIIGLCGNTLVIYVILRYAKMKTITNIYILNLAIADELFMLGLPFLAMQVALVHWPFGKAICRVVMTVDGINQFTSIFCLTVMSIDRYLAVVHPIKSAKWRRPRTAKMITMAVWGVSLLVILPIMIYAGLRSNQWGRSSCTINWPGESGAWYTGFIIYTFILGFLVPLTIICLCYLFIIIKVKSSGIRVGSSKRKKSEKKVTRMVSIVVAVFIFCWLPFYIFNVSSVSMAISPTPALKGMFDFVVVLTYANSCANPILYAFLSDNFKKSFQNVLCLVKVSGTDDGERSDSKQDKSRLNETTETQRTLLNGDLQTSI

EC50 [nM] | Compound
< 10 | Cc1cc(F)cc(-c2cnc(N)c(-c3nc4cccc(C=NO)c4[nH]3)c2N2CCC(N)CC2)c1 [Compound 1-22, 4-(4-aminopiperidin-1-yl)-5-(3-fluoro-5-methylphenyl)-3-{7-[(hydroxyimino)methyl]-1H-1,3-benzodiazol-2-yl]pyridin-2-amine]
< 10 | COc1ccc2c(C#N)c(-c3nncc(-c4cc(C)cc(F)c4)c3N3CCC(N)CC3)[nH]c2c1 [Compound 3-25, 2-[4-(4-aminopiperidin-1-yl)-5-(3-fluoro-5-methylphenyl)pyridazin-3-yl]-6-methoxy-1H-indole-3-carbonitrile]
< 10 | CNC1CCN(c2c(-c3cc(C)cc(F)c3)cnc(N)c2-c2nc3cc(F)cc(OC)c3[nH]2)CC1 [Compound 4-10, 3-(5-fluoro-7-methoxy-1H-1,3-benzodiazol-2-yl)-5-(3-fluoro-5-methylphenyl)-4-[4-(methylamino)piperidin-1-yl]pyridin-2-amine]
< 10 | 4-(4-aminopiperidin-1-yl)-5-(3-fluoro-5-methylphenyl)-3-(7-methoxy-1H-1,3-benzodiazol-2-yl)pyridin-2-amine [Compound 1-13]
< 10 | Cc1cc(F)cc(-c2cnnc(-c3[nH]c4cc(C#N)ccc4c3C#N)c2N2CCC(N)CC2)c1 [Compound 3-26, 2-[4-(4-aminopiperidin-1-yl)-5-(3-fluoro-5-methylphenyl)pyridazin-3-yl]-1H-indole-3,6-dicarbonitrile]
< 10 | Cc1cc(F)cc(-c2cnc(Cl)c(-c3nc4cc(F)ccc4[nH]3)c2N2CCC(N)CC2)c1 [Compound 2-11, 1-[2-chloro-3-(5-fluoro-1H-1,3-benzodiazol-2-yl)-5-(3-fluoro-5-methylphenyl)pyridin-4-yl]piperidin-4-amine]
< 10 | Cc1cc(F)cc(-c2cnnc(-c3cc4cc(Cl)ccc4[nH]3)c2N2CCC(N)CC2)c1 [Compound 3-1, 1-[3-(5-chloro-1H-indol-2-yl)-5-(3-fluoro-5-methylphenyl)pyridazin-4-yl]piperidin-4-amine]
< 10 | COc1cc(F)cc2nc(-c3c(N)ncc(-c4cc(F)cc(Cl)c4)c3N3CCC(N)CC3)[nH]c12 [Compound 1-90, 4-(4-aminopiperidin-1-yl)-5-(3-chloro-5-fluorophenyl)-3-(5-fluoro-7-methoxy-1H-1,3-benzodiazol-2-yl)pyridin-2-amine]
< 10 | Cc1cc(F)cc(-c2cnc(N3CCNCC3)c(-c3nc4cc(Cl)ccc4[nH]3)c2N2CCC(N)CC2)c1 [Compound 4-11, 1-[3-(5-chloro-1H-1,3-benzodiazol-2-yl)-5-(3-fluoro-5-methylphenyl)-2-(piperazin-1-yl)pyridin-4-yl]piperidin-4-amine]
10 to 100 | CONC(=O)c1ccc2[nH]c(-c3c(N)ncc(-c4cc(C)cc(F)c4)c3N3CCC(N)CC3)nc2c1 [Compound 1-23, 2-[2-amino-4-(4-aminopiperidin-1-yl)-5-(3-fluoro-5-methylphenyl)pyridin-3-yl]-N-methoxy-1H-1,3-benzodiazole-5-carboxamide]
< 10 | N#Cc1cc(F)cc(-c2cnc(N)c(-c3nc4cc(Cl)ccc4[nH]3)c2N2CCC(N)CC2)c1 [Compound 1-32, 3-[6-amino-4-(4-aminopiperidin-1-yl)-5-(5-chloro-1H-1,3-benzodiazol-2-yl)pyridin-3-yl]-5-fluorobenzonitrile]
< 10 | COc1ccc2c(Cl)c(-c3nncc(-c4cc(C)cc(F)c4)c3N3CCC(N)CC3)[nH]c2c1 [Compound 3-21, 1-[3-(3-chloro-6-methoxy-1H-indol-2-yl)-5-(3-fluoro-5-methylphenyl)pyridazin-4-yl]piperidin-4-amine]
< 10 | COC(=O)c1ccc2cc(-c3nncc(-c4cc(C)cc(F)c4)c3N3CCC(N)CC3)[nH]c2c1 [Compound 3-18, methyl 2-[4-(4-aminopiperidin-1-yl)-5-(3-fluoro-5-methylphenyl)pyridazin-3-yl]-1H-indole-6-carboxylate]
< 10 | Cc1cc(F)cc(-c2cnc(N)c(-c3nc4cc5c(cc4[nH]3)OC(F)(F)O5)c2N2CCC(N)CC2)c1 [Compound 1-31, 4-(4-aminopiperidin-1-yl)-3-{5,5-difluoro-4,6-dioxa-10,12-diazatricyclo[7.3.0.0^3,7]dodeca-1,3 (7),8,10-tetraen-11-yl}-5-(3-fluoro-5-methylphenyl)pyridin-2-amine]
< 10 | Cc1cc(C)cc(-c2cnc(N)c(-c3nc4cc(Cl)ccc4[nH]3)c2N2CC[C@@H](N)[C@H](C#N)C2)c1 (relative stereo) [Compound 1-41, trans-4-amino-1-[2-amino-3-(5-chloro-1H-1,3-benzodiazol-2-yl)-5-(3,5-dimethylphenyl)pyridin-4-yl]piperidine-3-carbonitrile]
< 10 | Cc1cc(F)cc(-c2cnnc(-c3nc4cc(F)ccc4[nH]3)c2N2CCC(N)CC2)c1 [Compound 3-13, 1-[3-(5-fluoro-1H-1,3-benzodiazol-2-yl)-5-(3-fluoro-5-methylphenyl)pyridazin-4-yl]piperidin-4-amine]
< 10 | Cc1cc(F)cc(-c2cnc(N)c(-c3nc4cnccc4[nH]3)c2N2CCC(N)CC2)c1 [Compound 1-51, 4-(4-aminopiperidin-1-yl)-5-(3-fluoro-5-methylphenyl)-3-{1H-imidazo[4,5-c]pyridin-2-yl}pyridin-2-amine]
< 10 | Cc1cc(F)cc(-c2cnc(N)c(-c3nc4cccc(C#N)c4[nH]3)c2N2CCC(N)CC2)c1 [Compound 1-21, 2-[2-amino-4-(4-aminopiperidin-1-yl)-5-(3-fluoro-5-methylphenyl)pyridin-3-yl]-1H-1,3-benzodiazole-7-carbonitrile]
< 10 | CNc1ncc(-c2cc(C)cc(F)c2)c(N2CCC(N)CC2)c1-c1nc2cc(C#N)cc(F)c2[nH]1 [Compound 1-89, 2-[4-(4-aminopiperidin-1-yl)-5-(3-fluoro-5-methylphenyl)-2-(methylamino)pyridin-3-yl]-7-fluoro-1H-1,3-benzodiazole-5-carbonitrile]
< 10 | Cc1cc(F)cc(-c2cnnc(-c3cc4cccc(C#N)c4[nH]3)c2N2CCC(N)CC2)c1 [Compound 3-23, 2-[4-(4-aminopiperidin-1-yl)-5-(3-fluoro-5-methylphenyl)pyridazin-3-yl]-1H-indole-7-carbonitrile]
< 10 | COc1cc(F)cc2nc(-c3c(N)ncc(-c4ccc(F)c(C)c4)c3N3CCC(N)CC3)[nH]c12 [Compound 1-91, 4-(4-aminopiperidin-1-yl)-5-(4-fluoro-3-methylphenyl)-3-(5-fluoro-7-methoxy-1H-1,3-benzodiazol-2-yl)pyridin-2-amine]
< 10 | CON(C)C(=O)c1ccc2[nH]c(-c3c(N)ncc(-c4cc(C)cc(F)c4)c3N3CCC(N)CC3)nc2c1 [Compound 1-24, 2-[2-amino-4-(4-aminopiperidin-1-yl)-5-(3-fluoro-5-methylphenyl)pyridin-3-yl]-N-methoxy-N-methyl-1H-1,3-benzodiazole-5-carboxamide]
< 10 | Cc1cc(F)cc(-c2cnc(N)c(-c3nc4cc(OC5COC5)ccc4[nH]3)c2N2CCC(N)CC2)c1 [Compound 1-16, 4-(4-aminopiperidin-1-yl)-5-(3-fluoro-5-methylphenyl)-3-[5-(oxetan-3-yloxy)-1H-1,3-benzodiazol-2-yl]pyridin-2-amine]
< 10 | Cc1cc(F)cc(-c2cnc(N)c(C=NOC(C)(C)C)c2N2CCC(N)CC2)c1 [Compound 1-35]
< 10 | Nc1ncc(-c2cc(F)cc(F)c2)c(N2CCC(N)CC2)c1-c1nc2cc(Cl)ccc2[nH]1 [Compound 1-81, 4-(4-aminopiperidin-1-yl)-3-(5-chloro-1H-1,3-benzodiazol-2-yl)-5-(3,5-difluorophenyl)pyridin-2-amine]
< 10 | COc1cc(F)cc2[nH]c(-c3c(N)ncc(-c4cc(C)cc(C)c4)c3N3CCC(N)CC3)nc12 [Compound 1-83, 4-(4-aminopiperidin-1-yl)-5-(3,5-dimethylphenyl)-3-(6-fluoro-4-methoxy-1H-1,3-benzodiazol-2-yl)pyridin-2-amine]
< 10 | Nc1ncc(-c2cc(F)cc(Cl)c2)c(N2CCC(N)CC2)c1-c1nc2cc(F)cc(F)c2[nH]1 [Compound 1-77, 4-(4-aminopiperidin-1-yl)-5-(3-chloro-5-fluorophenyl)-3-(5,7-difluoro-1H-1,3-benzodiazol-2-yl)pyridin-2-amine]

Compound | EC50 [nM]
Cc1cc(F)cc(-c2cnc(N)c(-c3nc4cc(OC5CCC5)ccc4[nH]3)c2N2CCC(N)CC2)c1 [Compound 1-19, 4-(4-aminopiperidin-1-yl)-3-(5-cyclobutoxy-1H-1,3-benzodiazol-2-yl)-5-(3-fluoro-5-methylphenyl)pyridin-2-amine] | < 10
